In ChEMBL document CHEMBL3885881, “DrugMatrix”:

Species on record: Rattus norvegicus
Assay: DrugMatrix - Regimen: Daily Repeat
Format: toxicity, organism-based, Sprague-Dawley
Design: regimen Daily Repeat, gender Male, age 6-8 weeks
Conditions: in vivo, po, route oral GAVAGE, vehicle .5 % CMC; for ABSOLUTE BASOPHIL / ABSOLUTE EOSINOPHIL / ABSOLUTE LYMPHOCYTE / ABSOLUTE MONOCYTE / ABSOLUTE SEGMENTED NEUTROPHIL / BASOPHIL / EOSINOPHIL / ERYTHROCYTE COUNT / HEMATOCRIT / HEMOGLOBIN / LEUKOCYTE COUNT / LYMPHOCYTE / MEAN CORPUSCULAR HEMOGLOBIN / MEAN CORPUSCULAR HEMOGLOBIN CONCENTRATION / MEAN CORPUSCULAR VOLUME / MONOCYTE / NEUTROPHIL / NUCLEATED RED BLOOD CELLS / PLATELET COUNT: tissue Blood; for ALANINE AMINOTRANSFERASE / ALBUMIN / ALKALINE PHOSPHATASE / ASPARTATE AMINOTRANSFERASE / BLOOD UREA NITROGEN / CARBON DIOXIDE / CHLORIDE / CHOLESTEROL / CREATINE PHOSPHOKINASE / CREATININE / GLUCOSE / LACTATE DEHYDROGENASE / LIPASE / PHOSPHORUS / POTASSIUM / SODIUM / TOTAL BILIRUBIN / TOTAL PROTEIN / URIC ACID: tissue Plasma
[1] = 0 mg/kg, 72 h, dose level Control, time 3 day
[2] = 0 mg/kg, 120 h, dose level Control, time 5 day
[3] = 20 mg/kg, 72 h, dose level Low, time 3 day

Structure (SMILES): CC(C)(C)NC(=O)[C@@H]1C[C@@H]2CCCC[C@@H]2CN1C[C@@H](O)[C@H](Cc1ccccc1)NC(=O)[C@H](CC(N)=O)NC(=O)c1ccc2ccccc2n1
- ABSOLUTE BASOPHIL [1]: 0 CELLS/uL
- ABSOLUTE EOSINOPHIL [1]: 222.83 CELLS/uL
- ABSOLUTE LYMPHOCYTE [1]: 14453 CELLS/uL
- ABSOLUTE MONOCYTE [1]: 0 CELLS/uL
- ABSOLUTE SEGMENTED NEUTROPHIL [1]: 1490.83 CELLS/uL
- BASOPHIL [1]: 0%
- EOSINOPHIL [1]: 1.33%
- ERYTHROCYTE COUNT [1]: 5.76 x10E6/uL
- HEMATOCRIT [1]: 36.52%
- HEMOGLOBIN [1]: 13.45 G/DL
- LEUKOCYTE COUNT [1]: 16.17 x10E3/uL
- LYMPHOCYTE [1]: 89.33%
- MEAN CORPUSCULAR HEMOGLOBIN [1]: 23.37 pg
- MEAN CORPUSCULAR HEMOGLOBIN CONCENTRATION [1]: 36.85 G/DL
- MEAN CORPUSCULAR VOLUME [1]: 63.47 fL
- MONOCYTE [1]: 0%
- NEUTROPHIL [1]: 9.33%
- NUCLEATED RED BLOOD CELLS [1]: 0 /100WBC
- PLATELET COUNT [1]: 1239.5 x10E3/uL
- ALANINE AMINOTRANSFERASE [1]: 43.83 u/L
- ALBUMIN [1]: 4.27 G/DL
- ALKALINE PHOSPHATASE [1]: 398.83 u/L
- ASPARTATE AMINOTRANSFERASE [1]: 81.17 u/L
- BLOOD UREA NITROGEN [1]: 17.67 mg/dL
- CARBON DIOXIDE [1]: 27.5 mmol/L
- CHLORIDE [1]: 99.17 MEQ/L
- CHOLESTEROL [1]: 74 mg/dL
- CREATINE PHOSPHOKINASE [1]: 331.5 u/L
- CREATININE [1]: 0.2 mg/dL
- GLUCOSE [1]: 171.33 mg/dL
- LACTATE DEHYDROGENASE [1]: 241.67 u/L
- LIPASE [1]: 9.5 u/L
- PHOSPHORUS [1]: 12.25 mg/dL
- POTASSIUM [1]: 6.33 MEQ/L
- SODIUM [1]: 141.28 MEQ/L
- TOTAL BILIRUBIN [1]: 0.15 mg/dL
- TOTAL PROTEIN [1]: 5.98 G/DL
- URIC ACID [1]: 1.63 mg/dL
- ABSOLUTE BASOPHIL [2]: 0 CELLS/uL
- ABSOLUTE EOSINOPHIL [2]: 148.67 CELLS/uL
- ABSOLUTE LYMPHOCYTE [2]: 16020.5 CELLS/uL
- ABSOLUTE MONOCYTE [2]: 29.17 CELLS/uL
- ABSOLUTE SEGMENTED NEUTROPHIL [2]: 1468.33 CELLS/uL
- BASOPHIL [2]: 0%
- EOSINOPHIL [2]: 1%
- ERYTHROCYTE COUNT [2]: 5.78 x10E6/uL
- HEMATOCRIT [2]: 35.77%
- HEMOGLOBIN [2]: 13.4 G/DL
- LEUKOCYTE COUNT [2]: 17.67 x10E3/uL
- LYMPHOCYTE [2]: 90.5%
- MEAN CORPUSCULAR HEMOGLOBIN [2]: 23.22 pg
- MEAN CORPUSCULAR HEMOGLOBIN CONCENTRATION [2]: 37.47 G/DL
- MEAN CORPUSCULAR VOLUME [2]: 61.92 fL
- MONOCYTE [2]: 0.17%
- NEUTROPHIL [2]: 8.33%
- NUCLEATED RED BLOOD CELLS [2]: 0.17 /100WBC
- PLATELET COUNT [2]: 1255.5 x10E3/uL
- ALANINE AMINOTRANSFERASE [2]: 46.5 u/L
- ALBUMIN [2]: 4.38 G/DL
- ALKALINE PHOSPHATASE [2]: 336 u/L
- ASPARTATE AMINOTRANSFERASE [2]: 76.5 u/L
- BLOOD UREA NITROGEN [2]: 20 mg/dL
- CARBON DIOXIDE [2]: 27.5 mmol/L
- CHLORIDE [2]: 101 MEQ/L
- CHOLESTEROL [2]: 71.33 mg/dL
- CREATINE PHOSPHOKINASE [2]: 231.83 u/L
- CREATININE [2]: 0.37 mg/dL
- GLUCOSE [2]: 168.83 mg/dL
- LACTATE DEHYDROGENASE [2]: 174 u/L
- LIPASE [2]: 8.67 u/L
- PHOSPHORUS [2]: 11.48 mg/dL
- POTASSIUM [2]: 6.82 MEQ/L
- SODIUM [2]: 143.8 MEQ/L
- TOTAL BILIRUBIN [2]: 0.2 mg/dL
- TOTAL PROTEIN [2]: 5.98 G/DL
- URIC ACID [2]: 1.83 mg/dL
- ABSOLUTE BASOPHIL [3]: 0 CELLS/uL
- ABSOLUTE EOSINOPHIL [3]: 240.67 CELLS/uL
- ABSOLUTE LYMPHOCYTE [3]: 11319.33 CELLS/uL
- ABSOLUTE MONOCYTE [3]: 32 CELLS/uL
- ABSOLUTE SEGMENTED NEUTROPHIL [3]: 1141.33 CELLS/uL
- BASOPHIL [3]: 0%
- EOSINOPHIL [3]: 1.67%
- ERYTHROCYTE COUNT [3]: 5.23 x10E6/uL
- HEMATOCRIT [3]: 32.43%
- HEMOGLOBIN [3]: 12.37 G/DL
- LEUKOCYTE COUNT [3]: 12.73 x10E3/uL
- LYMPHOCYTE [3]: 89%
- MEAN CORPUSCULAR HEMOGLOBIN [3]: 23.63 pg
- MEAN CORPUSCULAR HEMOGLOBIN CONCENTRATION [3]: 38.13 G/DL
- MEAN CORPUSCULAR VOLUME [3]: 62 fL
- MONOCYTE [3]: 0.33%
- NEUTROPHIL [3]: 9%
- NUCLEATED RED BLOOD CELLS [3]: 0 /100WBC
- PLATELET COUNT [3]: 1264.33 x10E3/uL
- ALANINE AMINOTRANSFERASE [3]: 43.67 u/L
- ALBUMIN [3]: 4.1 G/DL
- ALKALINE PHOSPHATASE [3]: 371.33 u/L
- ASPARTATE AMINOTRANSFERASE [3]: 73.67 u/L
- BLOOD UREA NITROGEN [3]: 14.33 mg/dL
- CARBON DIOXIDE [3]: 25.67 mmol/L
- CHLORIDE [3]: 102 MEQ/L
- CHOLESTEROL [3]: 79.67 mg/dL
- CREATINE PHOSPHOKINASE [3]: 319.67 u/L
- CREATININE [3]: 0.15 mg/dL
- GLUCOSE [3]: 144.67 mg/dL
- LACTATE DEHYDROGENASE [3]: 139.33 u/L
- LIPASE [3]: 8 u/L
- PHOSPHORUS [3]: 12.8 mg/dL
- POTASSIUM [3]: 6.81 MEQ/L
- SODIUM [3]: 142.53 MEQ/L
- TOTAL BILIRUBIN [3]: 0.2 mg/dL
- TOTAL PROTEIN [3]: 5.67 G/DL
- URIC ACID [3]: 1.47 mg/dL
